“And” between values parts separate entries of the source, which are not always exact repeats. Equal values may be shown once.
Assays:
[1] = system: Canis familiaris; assay: Total electrolytic excretion of chlorine in urine of dogs after intravenous administration of 30.3 uM/Kg of drug; format: ADME, organism-based, Canis lupus familiaris; settings: dog, in vivo
[2] = system: Rattus norvegicus; assay: Ratio of Total electrolytic excretion of sodium and potassium in urine of rats after intravenous administration of 3.03 uM/Kg of drug; format: ADME, organism-based; settings: in vivo
[3] = organism: Canis familiaris; assay: Tissue vascular resistance of pancreas was measured in Beagle dogs after giving the dose of MNX; format: functional, Canis lupus familiaris
[4] = system: Rattus norvegicus; assay: Ratio of Total electrolytic excretion of sodium and potassium in urine of rats after peroral administration of 34.1 uM/Kg of drug; format: ADME, organism-based; settings: in vivo, po
[5] = system: Rattus norvegicus; assay: Ratio of Total electrolytic excretion of sodium and potassium in urine of rats after intravenous administration of 30.3 uM/Kg of drug; format: ADME, organism-based; settings: in vivo
[6] = organism: Canis familiaris; assay: Systemic cardio vascular Hemodynamics of total peripheral resistance was measured in Beagle dogs in pretreatment control group; format: functional, Canis lupus familiaris, Heart
[7] = system: Canis familiaris; assay: Tested for the diuretic activity by measuring the urinary volume after intravenous administering 3.03 uM/Kg of drug in dogs; format: ADME, organism-based, Canis lupus familiaris, Urine; settings: dog, in vivo
[8] = organism: Canis familiaris; assay: Tissue vascular resistance of right atrium was measured in Beagle dogs after giving the dose of MNX; format: functional, Canis lupus familiaris, Cardiac atrium
[9] = system: Rattus norvegicus; assay: Tested for the diuretic activity by measuring the urinary volume after peroral administering 341 uM/Kg of drug in rats; format: ADME, organism-based, Urine; settings: in vivo, po
[10] = system: Rattus norvegicus; assay: Total electrolytic excretion of potassium in urine of rats after peroral administration of 341 uM/Kg of drug; format: ADME, organism-based; settings: in vivo, po
[11] = system: Canis familiaris; assay: Total electrolytic excretion of chlorine in urine of dogs after peroral administration of 50.8 uM/Kg of drug; format: ADME, organism-based, Canis lupus familiaris; settings: dog, in vivo, po
[12] = system: Canis familiaris; assay: Tested for the diuretic activity by measuring the urinary volume after peroral administering 34.1 uM/Kg of drug in dogs; format: ADME, organism-based, Canis lupus familiaris, Urine; settings: dog, in vivo, po
[13] = system: Canis familiaris; assay: Total electrolytic excretion of chlorine in urine of dogs after intravenous administration of 9.09 uM/Kg of drug; format: ADME, organism-based, Canis lupus familiaris; settings: dog, in vivo
[14] = system: Rattus norvegicus; assay: Tested for the diuretic activity by measuring the urinary volume after peroral administering 34.1 uM/Kg of drug in rats; format: ADME, organism-based, Urine; settings: in vivo, po
[15] = organism: Canis familiaris; assay: Systemic cardio vascular Hemodynamics of heart rate was measured in Beagle dogs after giving the dose of MNX; format: functional, Canis lupus familiaris
[16] = system: Canis familiaris; assay: Total electrolytic excretion of sodium in urine of dogs after peroral administration of 34.1 uM/Kg of drug; format: ADME, organism-based, Canis lupus familiaris; settings: dog, in vivo, po
[17] = system: Canis familiaris; assay: Tested for the diuretic activity by measuring the urinary volume after peroral administering 50.8 uM/Kg of drug in dogs; format: ADME, organism-based, Canis lupus familiaris, Urine; settings: dog, in vivo, po
[18] = system: Canis familiaris; assay: Total electrolytic excretion of chlorine in urine of dogs after intravenous administration of 34.1 uM/Kg of drug; format: ADME, organism-based, Canis lupus familiaris; settings: dog, in vivo
[19] = system: Rattus norvegicus; assay: Total electrolytic excretion of chlorine in urine of rats after peroral administration of 102 uM/Kg of drug; format: ADME, organism-based; settings: in vivo, po
[20] = organism: Canis familiaris; assay: Systemic cardio vascular Hemodynamics of mean arterial pressure was measured in Beagle dogs in pretreatment control group; format: functional, Canis lupus familiaris, Heart
[21] = system: Canis familiaris; assay: Total electrolytic excretion of potassium in urine of dogs after intravenous administration of 34.1 uM/Kg of drug; format: ADME, organism-based, Canis lupus familiaris; settings: dog, in vivo
[22] = system: Canis familiaris; assay: Total electrolytic excretion of chlorine in urine of dogs after peroral administration of 68.1 uM/Kg of drug; format: ADME, organism-based, Canis lupus familiaris; settings: dog, in vivo, po
[23] = organism: Canis familiaris; assay: Systemic cardio vascular Hemodynamics of heart rate was measured in Beagle dogs in pretreatment control group; format: functional, Canis lupus familiaris
[24] = system: Canis familiaris; assay: Total electrolytic excretion of sodium in urine of dogs after peroral administration of 102 uM/Kg of drug; format: ADME, organism-based, Canis lupus familiaris; settings: dog, in vivo, po
[25] = organism: Canis familiaris; assay: Systemic cardio vascular Hemodynamics of stroke index was measured in Beagle dogs in pretreatment control group; format: functional, Canis lupus familiaris, Heart
[26] = system: Canis familiaris; assay: Tested for the diuretic activity by measuring the urinary volume after intravenous administering 34.1 uM/Kg of drug in dogs; format: ADME, organism-based, Canis lupus familiaris, Urine; settings: dog, in vivo
[27] = system: Rattus norvegicus; assay: Tested for the diuretic activity by measuring the urinary volume after peroral administering 102 uM/Kg of drug in rats; format: ADME, organism-based, Urine; settings: in vivo, po
[28] = organism: Canis familiaris; assay: Tissue vascular resistance of large intestine was measured in Beagle dogs after giving the dose of MNX; format: functional, Canis lupus familiaris
[29] = system: Rattus norvegicus; assay: Ratio of Total electrolytic excretion of sodium and potassium in urine of rats after peroral administration of 50.8 uM/Kg of drug; format: ADME, organism-based; settings: in vivo, po
[30] = organism: Canis familiaris; assay: Tissue vascular resistance of left ventricle was measured in Beagle dogs before treatment; format: functional, Canis lupus familiaris, Heart left ventricle
[31] = system: Canis familiaris; assay: Tested for the diuretic activity by measuring the urinary volume after peroral administering 68.1 uM/Kg of drug in dogs; format: ADME, organism-based, Canis lupus familiaris, Urine; settings: dog, in vivo, po
[32] = system: Canis familiaris; assay: Tested for the diuretic activity by measuring the urinary volume after peroral administering 102 uM/Kg of drug in dogs; format: ADME, organism-based, Canis lupus familiaris, Urine; settings: dog, in vivo, po
[33] = system: Canis familiaris; assay: Total electrolytic excretion of sodium in urine of dogs after peroral administration of 50.8 uM/Kg of drug; format: ADME, organism-based, Canis lupus familiaris; settings: dog, in vivo, po
[34] = system: Canis familiaris; assay: Total electrolytic excretion of sodium in urine of dogs after peroral administration of 68.1 uM/Kg of drug; format: ADME, organism-based, Canis lupus familiaris; settings: dog, in vivo, po
[35] = system: Rattus norvegicus; assay: Ratio of Total electrolytic excretion of sodium and potassium in urine of rats after peroral administration of 341 uM/Kg of drug; format: ADME, organism-based; settings: in vivo, po
[36] = organism: Canis familiaris; assay: Systemic cardio vascular Hemodynamics of mean arterial pressure was measured in Beagle dogs after giving the dose of MNX plus the drug; format: functional, Canis lupus familiaris, Heart
[37] = organism: Canis familiaris; assay: Systemic cardio vascular Hemodynamics of heart rate was measured in Beagle dogs after giving the dose of MNX plus the drug; format: functional, Canis lupus familiaris
[38] = organism: Canis familiaris; assay: Systemic cardio vascular Hemodynamics of stroke index was measured in Beagle dogs after giving the dose of MNX; format: functional, Canis lupus familiaris, Heart
[39] = organism: Canis familiaris; assay: Systemic cardio vascular Hemodynamics of cardiac index was measured in Beagle dogs after giving the dose of MNX; format: functional, Canis lupus familiaris, Heart
[40] = organism: Canis familiaris; assay: Tissue vascular resistance of right atrium was measured in Beagle dogs before treatment; format: functional, Canis lupus familiaris, Cardiac atrium
[41] = system: Rattus norvegicus; assay: Ratio of Total electrolytic excretion of sodium and potassium in urine of rats after intravenous administration of 9.09 uM/Kg of drug; format: ADME, organism-based; settings: in vivo
[42] = system: Canis familiaris; assay: Total electrolytic excretion of sodium in urine of dogs after intravenous administration of 9.09 uM/Kg of drug; format: ADME, organism-based, Canis lupus familiaris; settings: dog, in vivo
[43] = organism: Canis familiaris; assay: Systemic cardio vascular Hemodynamics of cardiac index was measured in Beagle dogs in pretreatment control group; format: functional, Canis lupus familiaris, Heart
[44] = organism: Canis familiaris; assay: Tissue vascular resistance of pancreas was measured in Beagle dogs after giving the dose of MNX plus the drug; format: functional, Canis lupus familiaris
[45] = system: Canis familiaris; assay: Total electrolytic excretion of potassium in urine of dogs after intravenous administration of 3.03 uM/Kg of drug; format: ADME, organism-based, Canis lupus familiaris; settings: dog, in vivo
[46] = system: Rattus norvegicus; assay: Ratio of Total electrolytic excretion of sodium and potassium in urine of rats after intravenous administration of 34.1 uM/Kg of drug; format: ADME, organism-based; settings: in vivo
[47] = system: Rattus norvegicus; assay: Ratio of Total electrolytic excretion of sodium and potassium in urine of rats after peroral administration of 68.1 uM/Kg of drug; format: ADME, organism-based; settings: in vivo, po
[48] = organism: Canis familiaris; assay: Systemic cardio vascular Hemodynamics of stroke index was measured in Beagle dogs after giving the dose of MNX plus the drug; format: functional, Canis lupus familiaris, Heart
[49] = system: Canis familiaris; assay: Total electrolytic excretion of chlorine in urine of dogs after peroral administration of 34.1 uM/Kg of drug; format: ADME, organism-based, Canis lupus familiaris; settings: dog, in vivo, po
[50] = organism: Canis familiaris; assay: Systemic cardio vascular Hemodynamics of cardiac index was measured in Beagle dogs after giving the dose of MNX plus the drug; format: functional, Canis lupus familiaris, Heart
[51] = system: Canis familiaris; assay: Total electrolytic excretion of chlorine in urine of dogs after peroral administration of 102 uM/Kg of drug; format: ADME, organism-based, Canis lupus familiaris; settings: dog, in vivo, po
[52] = organism: Canis familiaris; assay: Systemic cardio vascular Hemodynamics of mean arterial pressure was measured in Beagle dogs after giving the dose of MNX; format: functional, Canis lupus familiaris, Heart
[53] = system: Rattus norvegicus; assay: Total electrolytic excretion of sodium in urine of rats after peroral administration of 102 uM/Kg of drug; format: ADME, organism-based; settings: in vivo, po
[54] = organism: Canis familiaris; assay: Tissue vascular resistance of right atrium was measured in Beagle dogs after giving the dose of MNX plus the drug; format: functional, Canis lupus familiaris, Cardiac atrium

## C1CCC(N=C(NC2CCCCC2)N2CCOCC2)CC1
[1]
  Excretion Cl-: 12.5 m equiv
[2]
  Ratio: 8.4
[3]
  TVR: 43 mmHg·min·g/mL
[4]
  Ratio: 3.6 and 9.6 and 9.1
[5]
  Ratio: 8.6
[6]
  TPR: 0.56 mmHg·min·kg/mL
[7]
  V: 64 mL
[8]
  TVR: 37 mmHg·min·g/mL
[9]
  V: 10.2 mL
[10]
  Excretion K+: 0.34 m equiv
[11]
  Excretion Cl-: 9.8 m equiv
[12]
  V: 77 mL
[13]
  Excretion Cl-: 9.6 m equiv
[14]
  V: 6.6 mL
[15]
  HR: 138 beats min-1
[16]
  Excretion Na+: 9.9 m equiv
[17]
  V: 62 mL
[18]
  Excretion Cl-: 16.4 m equiv
[19]
  Excretion Cl-: 1.65 m equiv
[20]
  MAP: 101 mmHg
[21]
  Excretion K+: 1.3 m equiv
[22]
  Excretion Cl-: 12.3 m equiv
[23]
  HR: 87 beats min-1
[24]
  Excretion Na+: 22.5 m equiv
[25]
  SI: 2.2 ml beat-1 kg-1
[26]
  V: 132 mL
[27]
  V: 10 mL
[28]
  TVR: 116 mmHg·min·g/mL
[29]
  Ratio: 6.1
[30]
  TVR: 112 mmHg·min·g/mL
[31]
  V: 91 mL
[32]
  V: 154 mL
[33]
  Excretion Na+: 11.9 m equiv
[34]
  Excretion Na+: 14 m equiv
[35]
  Ratio: 5
[36]
  MAP: 118 mmHg
[37]
  HR: 132 beats min-1
[38]
  SI: 1.9 ml beat-1 kg-1
[39]
  CI: 260 mL/min/kg
[40]
  TVR: 635 mmHg·min·g/mL
[41]
  Ratio: 8.7
[42]
  Excretion Na+: 11.5 m equiv
[43]
  CI: 186 mL/min/kg
[44]
  TVR: 219 mmHg·min·g/mL
[45]
  Excretion K+: 1.2 m equiv
[46]
  Ratio: 17.4
[47]
  Ratio: 8.6
[48]
  SI: 1.1 ml beat-1 kg-1
[49]
  Excretion Cl-: 9.4 m equiv
[50]
  CI: 138 mL/min/kg
[51]
  Excretion Cl-: 19.6 m equiv
[52]
  MAP: 75 mmHg
[53]
  Excretion Na+: 1.56 m equiv
[54]
  TVR: 573 mmHg·min·g/mL

Reference: ChEMBL document CHEMBL1127385, “Synthesis and diuretic activity of alkyl- and arylguanidine analogs of N,N'-dicyclohexyl-4-morpholinecarboxamidine in rats and dogs” (J Med Chem, 1994)
